The assay in a line: Inhibition of radiolabeled neuropeptide FF binding to neuropeptide FF receptors in rat spinal cord. Set-up: concentration or dose not given beside the values. The conditions noted are these: concentration not given here.

The structures appear in SMILES notation. Where “and” joins values, the source holds several entries; their conditions need not be identical. Equal values may be shown once.

Turning to `CC(C)[C@H]1CC1(NC(=O)[C@H](Cc1ccccc1)NC(=O)[C@@H](C)NC(=O)[C@H](C)NC(=O)[C@@H](N)Cc1ccc(O)cc1)C(=O)N[C@@H](CCCN=C(N)N)C(=O)N[C@@H](Cc1ccccc1)C(N)=O` (single isomer, unassigned; form 2), the inhibition is 27%.

For the molecule `CC(C)[C@H]1C[C@@]1(NC(=O)[C@H](Cc1ccccc1)NC(=O)[C@@H](C)NC(=O)[C@H](C)NC(=O)[C@@H](N)Cc1ccc(O)cc1)C(=O)N[C@@H](CCCN=C(N)N)C(=O)N[C@@H](Cc1ccccc1)C(N)=O`, the inhibition was 32% and 35%.

Molecule `CC(C)[C@H]1CC1(NC(=O)[C@H](Cc1ccccc1)NC(=O)[C@@H](C)NC(=O)CNC(=O)[C@@H](N)Cc1ccc(O)cc1)C(=O)N[C@@H](CCCN=C(N)N)C(=O)N[C@@H](Cc1ccccc1)C(N)=O` (single isomer, unassigned) gave an inhibition of 27%. Turning to `CC(C)C[C@H](NC(=O)[C@H](Cc1ccccc1)NC(=O)[C@@H](C)NC(=O)CNC(=O)[C@@H](N)Cc1ccc(O)cc1)C(=O)N[C@@H](CCCN=C(N)N)C(=O)N[C@@H](Cc1ccccc1)C(N)=O`, the inhibition was 81% and 75%. On to `CC(C)C[C@H](NC(=O)[C@H](Cc1ccccc1)NC(=O)CNC(=O)CNC(=O)[C@@H](N)Cc1ccc(O)cc1)C(=O)N[C@@H](CCCN=C(N)N)C(=O)N[C@@H](Cc1ccccc1)C(N)=O`, for which the inhibition is 98% and 84%. As to `CC(C)[C@H]1CC1(NC(=O)[C@H](Cc1ccccc1)NC(=O)CNC(=O)CNC(=O)[C@@H](N)Cc1ccc(O)cc1)C(=O)N[C@@H](CCCN=C(N)N)C(=O)N[C@@H](Cc1ccccc1)C(N)=O` (single isomer, unassigned), the inhibition was 57%. On to `CC(C)C[C@@H](NC(=O)[C@H](Cc1ccccc1)NC(=O)CNC(=O)[C@H](C)NC(=O)[C@@H](N)Cc1ccc(O)cc1)C(=O)N[C@@H](CCCN=C(N)N)C(=O)N[C@@H](Cc1ccccc1)C(N)=O`, for which the inhibition was 35% and 40%. Next, `CC(C)C[C@@H](NC(=O)[C@H](Cc1ccccc1)NC(=O)[C@@H](C)NC(=O)CNC(=O)[C@@H](N)Cc1ccc(O)cc1)C(=O)N[C@@H](CCCN=C(N)N)C(=O)N[C@@H](Cc1ccccc1)C(N)=O`: 28% and 48%; `CC(C)C[C@@H](NC(=O)[C@H](Cc1ccccc1)NC(=O)[C@@H](C)NC(=O)[C@H](C)NC(=O)[C@@H](N)Cc1ccc(O)cc1)C(=O)N[C@@H](CCCN=C(N)N)C(=O)N[C@@H](Cc1ccccc1)C(N)=O`: 69% and 63%.

Regarding `CC(C)C[C@H](NC(=O)[C@H](Cc1ccccc1)NC(=O)[C@@H](C)NC(=O)[C@H](C)NC(=O)[C@@H](N)Cc1ccc(O)cc1)C(=O)N[C@@H](CCCN=C(N)N)C(=O)N[C@@H](Cc1ccccc1)C(N)=O`, the inhibition is 58% and 65%. Turning to `CC(C)[C@H]1CC1(NC(=O)[C@H](Cc1ccccc1)NC(=O)[C@@H](C)NC(=O)[C@H](C)NC(=O)[C@@H](N)Cc1ccc(O)cc1)C(=O)N[C@@H](CCCN=C(N)N)C(=O)N[C@@H](Cc1ccccc1)C(N)=O` (single isomer, unassigned; form 1), the inhibition worked out at 32%. On to `CC(C)C[C@@H](NC(=O)[C@H](Cc1ccccc1)NC(=O)CNC(=O)CNC(=O)[C@@H](N)Cc1ccc(O)cc1)C(=O)N[C@@H](CCCN=C(N)N)C(=O)N[C@@H](Cc1ccccc1)C(N)=O`, for which the inhibition is 48% and 31%.

Regarding `CC(C)[C@@H]1C[C@]1(NC(=O)[C@H](Cc1ccccc1)NC(=O)[C@@H](C)NC(=O)CNC(=O)[C@@H](N)Cc1ccc(O)cc1)C(=O)N[C@@H](CCCN=C(N)N)C(=O)N[C@@H](Cc1ccccc1)C(N)=O`, the inhibition is 29% [middle of 4 runs]. Take `CC(C)C[C@H](NC(=O)[C@H](Cc1ccccc1)NC(=O)CNC(=O)[C@H](C)NC(=O)[C@@H](N)Cc1ccc(O)cc1)C(=O)N[C@@H](CCCN=C(N)N)C(=O)N[C@@H](Cc1ccccc1)C(N)=O`: the inhibition was 60% and 76%. With `CC(C)[C@@H]1C[C@]1(NC(=O)[C@H](Cc1ccccc1)NC(=O)[C@@H](C)NC(=O)[C@H](C)NC(=O)[C@@H](N)Cc1ccc(O)cc1)C(=O)N[C@@H](CCCN=C(N)N)C(=O)N[C@@H](Cc1ccccc1)C(N)=O`, the inhibition is 30% [middle of 4 runs]. As to `CC(C)[C@H]1C[C@@]1(NC(=O)[C@H](Cc1ccccc1)NC(=O)[C@@H](C)NC(=O)CNC(=O)[C@@H](N)Cc1ccc(O)cc1)C(=O)N[C@@H](CCCN=C(N)N)C(=O)N[C@@H](Cc1ccccc1)C(N)=O`, the inhibition was 22% and 34% and 43%.

The values are drawn from ChEMBL document CHEMBL1159132, “A small library of peptidomimetics to systematically vary and test the effects of X1 constraints” (Bioorg Med Chem Lett, 1996).
